The target of one series is Integrin alpha-V/beta-3 (Homo sapiens, UniProt P05106+P06756). The experiment in a line: Inhibition of binding to human alpha V beta3. In kind it is protein-complex assay.
The nature of series [1]: Compound was tested for plasma half life when administered in dog perorally (1 mg/kg) and intravenously (0.2 mg/kg). In kind it is ADME, organism-based, Canis lupus familiaris.
Series [2] is described as follows: Oral bioavailability in dog (1 mg/kg p.o. and 0.2 mg/kg i.v.). In kind it is ADME, organism-based, Canis lupus familiaris. The note with it: in vivo.
The nature of series [3]: Compound was tested for its ability of plasma clearance when administered in dog perorally (1 mg/kg) and intravenously (0.2 mg/kg). In kind it is ADME, organism-based, Canis lupus familiaris. The note with it: iv.
For the next series, the species on record is Homo sapiens. The experiment in a line: Inhibitory concentration required for 50% inhibition of the rate of ADP-stimulated platelet aggregation. In kind it is functional, organism-based.
A short description of series [4]: Partition coefficient (logP). In kind it is physicochemical. The note with it: octanol/water.

Chain of Integrin alpha-V/beta-3 (P05106 27-788 limits assumed): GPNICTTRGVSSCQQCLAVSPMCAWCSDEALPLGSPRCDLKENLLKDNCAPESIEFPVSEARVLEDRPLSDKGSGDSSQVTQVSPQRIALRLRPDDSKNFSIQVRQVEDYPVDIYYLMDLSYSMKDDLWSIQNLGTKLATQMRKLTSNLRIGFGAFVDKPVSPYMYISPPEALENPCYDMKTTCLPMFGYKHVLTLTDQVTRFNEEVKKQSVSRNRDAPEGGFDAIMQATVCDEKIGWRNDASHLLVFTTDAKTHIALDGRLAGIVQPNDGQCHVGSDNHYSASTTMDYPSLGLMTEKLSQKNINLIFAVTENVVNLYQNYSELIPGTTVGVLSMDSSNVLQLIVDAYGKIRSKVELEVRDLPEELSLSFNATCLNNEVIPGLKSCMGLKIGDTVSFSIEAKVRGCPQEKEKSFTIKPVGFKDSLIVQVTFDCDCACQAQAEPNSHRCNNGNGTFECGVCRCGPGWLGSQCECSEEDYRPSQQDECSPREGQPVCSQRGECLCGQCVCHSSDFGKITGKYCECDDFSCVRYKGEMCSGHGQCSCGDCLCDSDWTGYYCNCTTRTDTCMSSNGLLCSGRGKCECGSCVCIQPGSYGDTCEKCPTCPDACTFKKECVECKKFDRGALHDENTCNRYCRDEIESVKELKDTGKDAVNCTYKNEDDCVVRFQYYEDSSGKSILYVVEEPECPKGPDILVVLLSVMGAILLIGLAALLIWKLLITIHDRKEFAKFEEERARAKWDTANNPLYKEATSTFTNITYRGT
Chain of Integrin alpha-V/beta-3 (P06756 31-889 limits assumed): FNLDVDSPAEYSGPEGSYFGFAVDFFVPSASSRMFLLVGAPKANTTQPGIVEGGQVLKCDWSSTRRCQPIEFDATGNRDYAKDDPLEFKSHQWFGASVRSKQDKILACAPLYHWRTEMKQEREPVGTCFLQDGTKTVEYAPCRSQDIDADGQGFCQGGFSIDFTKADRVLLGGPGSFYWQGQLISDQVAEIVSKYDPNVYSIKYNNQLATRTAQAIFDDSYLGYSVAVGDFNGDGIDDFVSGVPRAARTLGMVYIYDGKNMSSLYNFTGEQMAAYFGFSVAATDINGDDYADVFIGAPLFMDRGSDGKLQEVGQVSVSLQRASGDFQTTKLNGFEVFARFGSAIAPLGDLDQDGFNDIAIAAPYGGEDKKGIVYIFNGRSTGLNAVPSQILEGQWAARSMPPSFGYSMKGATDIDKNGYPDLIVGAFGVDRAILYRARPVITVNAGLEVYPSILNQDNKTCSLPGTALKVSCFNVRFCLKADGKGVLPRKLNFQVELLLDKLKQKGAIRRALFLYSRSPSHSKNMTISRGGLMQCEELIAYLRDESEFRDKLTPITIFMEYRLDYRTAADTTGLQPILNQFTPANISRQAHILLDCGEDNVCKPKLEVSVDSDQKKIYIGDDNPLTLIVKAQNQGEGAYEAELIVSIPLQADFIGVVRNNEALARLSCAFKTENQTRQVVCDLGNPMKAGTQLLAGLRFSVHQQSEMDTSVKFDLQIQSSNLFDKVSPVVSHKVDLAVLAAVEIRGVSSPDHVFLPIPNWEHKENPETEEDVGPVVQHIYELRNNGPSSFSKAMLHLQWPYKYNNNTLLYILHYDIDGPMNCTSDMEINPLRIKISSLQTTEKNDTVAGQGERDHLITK
Chain of Integrin alpha-V/beta-3 (P06756 891-1048 limits assumed): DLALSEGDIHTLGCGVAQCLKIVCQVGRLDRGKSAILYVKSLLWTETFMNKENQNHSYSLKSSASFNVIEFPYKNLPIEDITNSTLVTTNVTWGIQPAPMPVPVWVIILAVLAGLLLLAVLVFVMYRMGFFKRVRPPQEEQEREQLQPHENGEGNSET

The term IC50 denotes the concentration that inhibits the measured activity by half. A lower IC50 goes with higher potency. As a reminder, the half-life is the time in which the quantity being followed falls by half. A word on the bioavailability: it is the share of a dose that reaches the circulation, judged against a reference dose that is usually intravenous. Read a low bioavailability as little systemic uptake. For orientation: logP means the decadic logarithm of the partition coefficient of the neutral form, usually between octanol and water. The low end stands for lower lipophilicity, the high end for higher lipophilicity. Consider `O=C(O)C[C@H](NC(=O)CCCCc1ccc2c(n1)NCCC2)c1cccc(F)c1`, for which the half-maximal inhibitory concentration (IC50) at Integrin alpha-V/beta-3 was 23 nM; in the series listed under Homo sapiens, greater than 10000 nM. The compound also had a half-life in series [1] of 5.5 h. In series [2], this compound had a bioavailability of 81%. This compound showed a clearance in series [3] of 2 mL/min/kg. The compound further showed a log partition coefficient (logP) in series [4] of 0.29.

As for `O=C(O)C[C@H](NC(=O)CNC(=O)CCCc1ccc2c(n1)NCCC2)c1cnc2ccccc2c1`, the IC50 at Integrin alpha-V/beta-3 was found to be 0.67 nM. This counts as sub-nanomolar.

`O=C(O)CCNC(=O)CCCCc1ccc2c(n1)NCCC2` had an IC50 at Integrin alpha-V/beta-3 of 500 nM.

Consider `O=C(O)C[C@H](NC(=O)CCCCc1ccc2c(n1)NCCC2)c1ccc2c(c1)OCC2`, for which the results for the IC50 on Integrin alpha-V/beta-3 and in the series filed under Homo sapiens were 3 nM and greater than 10000 nM, respectively. In series [1], this compound gave a half-life of 2.5 h. Also, the bioavailability in series [2] turned out to be 99%. The same compound displayed a clearance in series [3] of 1.2 mL/min/kg. In series [4], this compound had a log partition coefficient (logP) of 0.53.

Regarding `O=C(O)C[C@H](NC(=O)CCCCc1ccc2c(n1)NCCC2)c1cnc2ccccc2c1`, the figures for the IC50 on Integrin alpha-V/beta-3 and in the series listed under Homo sapiens were 1.6 nM and 4440 nM, respectively. The half-life in series [1] was 2.4 h. The bioavailability in series [2] amounted to 65%. Also, the clearance in series [3] was 5.8 mL/min/kg. The same compound gave a lipophilicity (logP) in series [4] of 0.76.

Take `O=C(O)C[C@H](NC(=O)CCCCc1ccc2c(n1)NCCC2)c1cncnc1`: the values for the concentration for half-maximal inhibition (IC50) at Integrin alpha-V/beta-3 and in the series listed under Homo sapiens were 3.3 nM and greater than 10000 nM, respectively. The half-life in series [1] was 2.4 h. Moreover, the bioavailability in series [2] worked out at 10%. Also, the clearance in series [3] came to 26 mL/min/kg. In addition, the logP in series [4] is -1.21.

`O=C(O)C[C@H](NC(=O)CCCCCc1ccc2c(n1)NCCC2)c1cnc2ccccc2c1` had an IC50 on Integrin alpha-V/beta-3 of 5.9 nM.

With `O=C(O)C[C@H](NC(=O)CCCCc1ccc2c(n1)NCCC2)c1ccc2nc(O)oc2c1`, the IC50 was 13.1 nM at Integrin alpha-V/beta-3 and greater than 10000 nM in the series listed under Homo sapiens. This compound gave a half-life in series [1] of 1.2 h. The bioavailability in series [2] worked out at 25%. For the same compound, the clearance in series [3] was 37 mL/min/kg. The log partition coefficient (logP) in series [4] was -0.24.

For the compound `O=C(O)C[C@H](NC(=O)CCCCc1ccc2c(n1)NCCC2)c1ccc2c(c1)OCO2`, the values for the IC50 on Integrin alpha-V/beta-3 and in the series listed under Homo sapiens were 1.5 nM and greater than 10000 nM, respectively. The half-life in series [1] is 2.4 h. In series [2], the bioavailability was 94%. The compound further came in with a clearance in series [3] of 1.2 mL/min/kg. Also, in series [4], the logP was 0.47.

`O=C(O)C[C@H](NC(=O)CCCCCCc1ccc2c(n1)NCCC2)c1cnc2ccccc2c1` had an IC50 on Integrin alpha-V/beta-3 of 5.8 nM.

`O=C(O)CCNC(=O)CNC(=O)CCCc1ccc2c(n1)NCCC2` displayed a half-inhibitory concentration (IC50) at Integrin alpha-V/beta-3 of 48 nM. This IC50 lies about 8.3-fold higher than the previous one.

(Values after ChEMBL document CHEMBL1135308, “Non-peptide alpha(v)beta(3) antagonists. Part 4: potent and orally bioavailable chain-shortened RGD mimetics” (Bioorg Med Chem Lett, 2002).)
